Series [1] concerns the target T1, aldehyde dehydrogenase (low Km) (Rattus norvegicus, UniProt P11884).
T1 construct: The aldehyde dehydrogenase activity in the homogenate after incubation for 1 h; from tissue; host or cells: rat liver homogenate
T1 sequence (P11884 20-519): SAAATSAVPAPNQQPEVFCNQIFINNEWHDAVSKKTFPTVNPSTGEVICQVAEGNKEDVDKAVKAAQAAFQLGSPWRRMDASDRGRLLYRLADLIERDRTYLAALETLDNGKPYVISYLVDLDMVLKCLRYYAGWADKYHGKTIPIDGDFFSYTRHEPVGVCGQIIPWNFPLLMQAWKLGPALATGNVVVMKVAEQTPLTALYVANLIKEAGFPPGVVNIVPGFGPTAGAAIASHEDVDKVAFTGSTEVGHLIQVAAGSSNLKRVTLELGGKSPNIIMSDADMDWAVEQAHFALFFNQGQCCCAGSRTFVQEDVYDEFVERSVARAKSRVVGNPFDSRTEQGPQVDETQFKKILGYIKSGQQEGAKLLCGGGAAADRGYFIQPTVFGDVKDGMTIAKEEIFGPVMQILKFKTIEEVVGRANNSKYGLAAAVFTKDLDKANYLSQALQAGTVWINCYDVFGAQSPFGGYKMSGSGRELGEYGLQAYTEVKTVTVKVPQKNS
Put plainly: In vitro inhibition of aldehyde dehydrogenase of low Km, rat liver homogenate. Conditions: 1 h incubation, 2760 μmol/liter, water ref. = 100, double determinations, 4 rats, read-out: Residual activity of aldehyde dehydrogenase (Low Km in % of ref. value). Type of series: biochemical. How it is done: (§1) METHOD FOR INHIBITING ALDEHYDE DEHYDROGENASE
(§2) Fractionation of rat liver homogenates was performed according to Tottmar et al, Biochem. J. 1973:135:577. The aldehyde dehydrogenase activity in the homogenate after incubation for 1 h with different thiocarbamic acid esters (see Table 1) was measured spectrophotometrically in 50 μl aliquots by following the reduction of NAD to NADH at 340 nm at 37° C. in the presence of the substrate acetaldehyde […], as described by Tottmar and Marcher (Acta Pharmacol. et Toxicol. 1976:38:366).
(§3) In vitro inhibition of aldehyde dehydrogenase of low Km
(§4) The values are X±SD of double determinations, on the one hand in homogenates from 4 rats and, on the other hand, in bovine liver (last two values in Table 1).
(§5) The concentration=2760 μmol/liter for all compounds, except the last two compounds for which the concentration was 3.0 mmol/liter.

The subject of series [2] is aldehyde dehydrogenase (low Km). Put plainly: In vitro inhibition of aldehyde dehydrogenase, measured on bovine liver. Conditions: 3.0 mmol/liter, water ref. = 100, double determinations, 60 min. Type of series: biochemical. How it is done: as §1, §2, §3
*Measured on bovine liver
as §4, §5

In a further series the test system is rats. The series can be described thus: "Antabuse-alcohol" reaction on rats by tonometry (diastolic blood pressure after ethanol). Type of series: in vivo, rat. The following applies: N = 3, salt water 92.5 ± 5.2. How it is done:
Method of assessing the "Antabuse®-alcohol" reaction on rats by tonometry
These measurements were performed on a selected compound. The substance employed is diethyl thiocarbamic acid-S-methyl ester (referred to as DTSM hereinafter).
Male rats having a body weight of 300-400 g were anaesthetised with urethane 1.25 g/kg i.p. On a group of 4 rats, a catheter filled with heparin-salt water was inserted by operative surgery in one carotid artery, and the blood pressure was recorded before and after intraperitoneal injection of ethanol (1 g/kg, 10 ml/kg of 10% v/v ethanol in water). Two other groups of 3 rats each were treated intraperitoneally with DTSM for 1 and 2 hours, respectively, whereupon ethanol (1 g/kg, 10 ml/kg of 10% v/v ethanol in water) was injected intraperitoneally. The blood pressure was measured before the injection of ethanol and for 30 min. after injection, after which time the blood pressure has usually stabilized itself (Hellstrom and Tottmar: Pharmacology Biochemistry and Behaviour 1982:17:1103).

The conditions of series [3]: cited from earlier work.
The conditions of series [4]: cited from earlier work. This is another data set of the same source.
The test system of series [5] is acetaldehyde dehydrogenase. Conditions: cited from earlier work.
The test system of a further series is patients. The following applies: person takes disulfiram and then drinks alcohol; cited from earlier work.

Consider twelve molecules from US5100916A, “Carbamic acid ester for treatment of addiction to alcohol” (Bio-Tox Diagnostics Kommanditbolag, priority 1988, dated 1992).

Take `CSC(=O)N1CCCC1`: in series [1], the remaining activity at 2760 µM was 9%.
On to `CSC(=O)N1CCCCC1`, for which, in series [1], the remaining activity at 2760 µM came to 16%.
As for `CSC(=O)NCCc1ccc(O)cc1`, the remaining activity at 2760 µM in series [1] is 10%.
Consider `CSC(=O)NCCc1ccccc1`, for which the remaining activity at 2760 µM in series [1] was determined as 0%.
With `CSC(=O)Nc1ccccc1`, in series [1], the remaining activity at 2760 µM is 8%.
Consider `CCCN(CCC)C(=O)SC`, for which, in series [1], the remaining activity at 2760 µM was 11%.
Consider `COC(=O)N1CCCCC1` [1-piperidine carbamic acid-methyl ester], for which the “Residual activity of aldehyde dehydrogenase (Low Km in % of ref. value)” value in series [2] is reported as 76 % of ref. value.
With `CCN(CC)C(=O)SC` [DTSM, diethyl thiocarbamic acid-S-methyl ester], the remaining activity at 2760 µM in series [1] amounted to 73%. For the same molecule, the “Diastolic blood pressure of rats 30 min. after ethanol injection, % of own ref. value (X ± SD)” value in the series with rats (DTSM 30 mg/kg i.p. 1 hour before ethanol 1 g/kg i.p., p <0.01) is listed as 77.1 ± 3.6 % of own ref. value; with rats (DTSM 30 mg/kg i.p. 2 hours before ethanol 1 g/kg i.p., p <0.05), 57.6 ± 28 % of own ref. value.
Take `CCN(CC)C(=O)OC` [Diethyl carbamic acid-methyl ester]: in series [2], the “Residual activity of aldehyde dehydrogenase (Low Km in % of ref. value)” value is recorded as 87 % of ref. value.
`CCSC(=O)N(CC)CC` [X = CH2 CH3, R = CH2 CH3, R1 = CH2 CH3, diethyl thiocarbamic acid-S-ethyl ester]: the remaining activity at 2760 µM in series [1] is 8%.
The same measure, in the same setting: to `CSC(=O)N(C)C` [X = CH3, R = CH3, R1 = CH3, dimethyl thiocarbamic acid-S-methyl ester] belongs 16%.
For the molecule `CCN(CC)C(=S)SSC(=S)N(CC)CC` [disulfiram], in series [3], the “t 1/2 of metabolism in blood” value is 4 min. In addition, the solubility in water result in series [4] is listed as “very sparingly soluble in water”. Further, in series [5], the “blocking of liver enzyme acetaldehyde dehydrogenase” value is on record as “irreversible blocking”. Further, the disulfiram/alcohol reaction entry in the series on patients is “nausea, a ruddy complexion, palpitation of the heart, low blood pressure, vomiting, and a pulsating headache”.
